Molecules are shown by their SMILES. Where two headings read alike, the source gives them in different places. Marks after values point to notes of the source that are not given here. Starred links: 1 amine or outer side, 2 acyl side, 3 side chain; linkers in the order of their positions; H or OH if unused. Non-standard residues stand in square brackets, D forms with d. Residues, ends and D or L forms follow the SMILES beside them. Groups on a side chain read outwards from the residue. *: point of attachment. C20 diacid = O=C(O)CCCCCCCCCCCCCCCCCCC(=O)*; C18 diacid = O=C(O)CCCCCCCCCCCCCCCCC(=O)*; γGlu = O=C(O)[C@H](CCC(=O)[*:2])N[*:1]; εLys = N[C@@H](CCCCN[*:1])C(=O)[*:2]; AEEA = NCCOCCOCC(=O)O; Aib = CC(C)(N)C(=O)O

Results on 3 molecules are retold here after patent publication US20220177538A1, “CO-AGONISTS AT GLP-1 AND GIP RECEPTORS SUITABLE FOR ORAL DELIVERY” (Novo Nordisk A/S, priority 2020, published 2022).

The target in data set [1] is T1, human GIP receptor (Homo sapiens, UniProt P48546).
T1 construct: expressed in transfected cells; host or cells: BHK (parent line BHKTS13), clone BHK CRE luc2P hGIPR
T1 sequence (P48546 22-466): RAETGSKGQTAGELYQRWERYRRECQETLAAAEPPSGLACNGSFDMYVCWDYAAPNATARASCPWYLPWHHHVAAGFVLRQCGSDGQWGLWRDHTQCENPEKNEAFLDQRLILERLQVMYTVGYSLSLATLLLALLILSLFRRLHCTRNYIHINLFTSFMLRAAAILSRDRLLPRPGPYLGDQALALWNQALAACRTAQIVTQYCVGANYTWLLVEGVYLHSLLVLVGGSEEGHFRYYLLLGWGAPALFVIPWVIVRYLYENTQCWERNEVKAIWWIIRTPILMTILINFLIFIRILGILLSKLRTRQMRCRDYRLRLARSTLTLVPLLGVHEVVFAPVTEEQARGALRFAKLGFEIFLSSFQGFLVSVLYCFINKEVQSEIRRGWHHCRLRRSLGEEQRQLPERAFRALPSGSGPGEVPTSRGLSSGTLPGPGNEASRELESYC
The data set is described as follows: In vitro functional potency, CRE luciferase reporter, whole BHK cells (hGIPR). The class given is cell-based. Particulars: BHK CRE luc2P hGIPR cells. In short, it runs like this:
(§1)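 Potencies are replicate means (n≥2) from non-linear log(agonist) vs response fits of CRE-driven luminescence. Cells were overnight-plated BHK CRE luc2P lines transfected with human GIPR or GLP-1R, 5000/well.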
For orientation: A reporter such as luciferase makes a cellular process visible.

The target in data set [2] is human GLP-1 receptor (Homo sapiens, UniProt P43220). As to the kind of experiment: In vitro functional potency, CRE luciferase reporter, whole BHK cells (hGLP-1R). The class given is cell-based. Set-up: expressed in transfected cells; host or cells: BHK (parent line BHKTS13), clone BHK CRE luc2P hGLP-1R. Particulars: BHK CRE luc2P hGLP-1R cells. In short, it runs like this: as §1

Data set [3] in a line: Pharmacokinetic study in dogs after oral dosing of tablets with SNAC. The following applies: for Tmax / half-life: male, Beagle. The format is in vivo, Beagle dogs. The protocol:
The purpose of this example is to determine the half-life and plasma exposure in vivo of the compounds of the present invention after p.o. administration to beagle dogs, i.e. the terminal half-life and concentration of test substance that reaches circulation with time. This is done in a pharmacokinetic (PK) study, where these parameters of the compound in question are determined. By terminal half-life is generally meant the period of time it takes to halve a certain plasma concentration, measured after the initial distribution phase.
The amount of SNAC in the tablet composition was 100-300 mg, the amount of magnesium stearate in the tablet composition was 7.7 mg, and the target amount of each test substance in the tablet composition was 3-4 mg.
Male beagle dogs, 1-7 years of age and weighing 9-17 kg during the study period, were included in the study. The dogs were dosed in a fasting state. The dogs were group housed in pens (12 hours light: 12 hours dark), and fed individually and restrictedly once daily with Royal Canin Medium Adult dog food (Royal Canin Products, China Branch, or Brogaarden A/S, Denmark). The dogs were used for repeated PK studies with a suitable wash-out period between successive dosing. An appropriate acclimatization period was given prior to initiation of the first PK study. All handling, dosing, and blood sampling of the animals were performed by trained and skilled staff. Before the studies, the dogs were fasted overnight and from 0 to 4 hours after dosing. The dogs were restricted to water 1 hour before dosing until 4 hours after dosing, but otherwise had ad libitum access to water during the whole period.
The compositions were administered by a single oral dosing to the dogs in groups of 6-8 dogs. […] The mouth was then closed, and 10 mL of tap water was given by syringe or gavage to facilitate swallowing of the tablet.
One blood sample was drawn before dosing, and additional samples were drawn at predefined time points after dosing for up to 240 hours, such as up to 10 hours, to adequately cover the full plasma concentration-time absorption profile of the test substance. For each blood sample time point, approximately 0.8 mL of whole blood was collected in a 1.5 mL EDTA-coated tube, which was gently turned to mix the sample with EDTA. Blood samples were collected in EDTA buffer (8 mM) and then centrifuged at 4° C. 2000 g for 10 minutes. Plasma was pipetted into Micronic tubes on dry ice, and kept at −20° C. or lower until analysis. Blood samples were taken as appropriate, for example from a venflon in the cephalic vein in the front leg for the first 2 hours and then with syringe from the jugular vein for the rest of the time points. The first few drops were allowed to drain from the venflon to avoid heparin saline from the venflon in the sample.
All blood samples were collected into test tubes containing EDTA for stabilisation and kept on ice until centrifugation. Plasma was separated from whole blood by centrifugation and the plasma was stored at −20° C. or lower until analysis.
The plasma was analysed for test substance using LC-MS (Liquid Chromatography-Mass Spectrometry) as known to the person skilled in the art. […] RP-HPLC separation was achieved using a linear gradient of 1:1 acetonitrile/methanol in 1% aqueous formic acid using either: a Phenomenex Onyx Monolithic C18 column (50×2.0 mm) and a flow rate of 0.8 mL/min at 30° C.; or an Agilent Poroshell 120 SB-C18 column (50×2.1 mm, 2.7 μm) at a flow rate of 0.4 mL/min at 60° C. The mass spectrometer was operated in either positive ionization SIM mode or positive ionization PRM mode.
For each individual animal, a plasma concentration-time profile was analysed by a non-compartmental model in Pharsight Phoenix WinNonLin ver.

Where [4] appears, read: 0% HSA, read-out: hGIPR, CRE Luc 0% HSA EC50.
Setting [5] is: hGIPR, CRE Luc 1% HSA EC50, 1% HSA.
Setting [6] is: 0% HSA, read-out: hGLP-1R, CRE Luc 0% HSA EC50.
Setting [7] is: hGLP-1R, CRE Luc 1% HSA EC50, 1% HSA.

Chain of human GLP-1 receptor (P43220 24-463): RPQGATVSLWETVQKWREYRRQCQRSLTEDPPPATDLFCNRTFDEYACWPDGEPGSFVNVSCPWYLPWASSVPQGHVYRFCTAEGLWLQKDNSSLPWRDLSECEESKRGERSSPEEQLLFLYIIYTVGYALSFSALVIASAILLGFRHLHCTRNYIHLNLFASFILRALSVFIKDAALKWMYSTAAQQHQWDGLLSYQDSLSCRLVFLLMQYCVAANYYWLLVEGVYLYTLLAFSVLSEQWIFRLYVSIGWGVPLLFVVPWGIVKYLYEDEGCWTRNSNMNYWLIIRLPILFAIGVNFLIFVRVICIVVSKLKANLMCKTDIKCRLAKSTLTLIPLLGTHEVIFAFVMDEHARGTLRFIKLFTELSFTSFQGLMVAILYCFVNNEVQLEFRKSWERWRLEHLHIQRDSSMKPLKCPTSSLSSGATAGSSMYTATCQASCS

In the case of `CC[C@H](C)[C@H](NC(=O)[C@H](Cc1ccccc1)NC(=O)[C@H](CCC(=O)O)NC(=O)[C@H](CCCNC(=N)N)NC(=O)[C@H](C)NC(=O)[C@H](C)NC(=O)[C@H](CCC(N)=O)NC(=O)[C@H](CCCCNC(=O)[C@@H](N)CCCCNC(=O)[C@@H](N)CCCCNC(=O)CC[C@H](NC(=O)CCCCCCCCCCCCCCCCCCC(=O)O)C(=O)O)NC(=O)[C@H](CCC(=O)O)NC(=O)[C@H](CC(C)C)NC(=O)[C@H](Cc1ccc(O)cc1)NC(=O)[C@@H](NC(=O)[C@H](CO)NC(=O)[C@H](Cc1ccc(O)cc1)NC(=O)[C@H](CC(=O)O)NC(=O)[C@H](CO)NC(=O)[C@@H](NC(=O)[C@H](Cc1ccccc1)NC(=O)[C@@H](NC(=O)CNC(=O)[C@H](CCC(=O)O)NC(=O)C(C)(C)NC(=O)[C@@H](N)Cc1ccc(O)cc1)[C@@H](C)O)[C@@H](C)O)[C@@H](C)CC)C(=O)N[C@@H](CC(N)=O)C(=O)N[C@@H](Cc1c[nH]c2ccccc12)C(=O)N[C@@H](CC(C)C)C(=O)N[C@@H](CC(C)C)C(=O)N[C@@H](C)C(=O)NCC(=O)NCC(=O)N1CCC[C@H]1C(=O)N[C@@H](CO)C(=O)N[C@@H](CO)C(=O)NCC(=O)N[C@@H](C)C(=O)N1CCC[C@H]1C(=O)N1CCC[C@H]1C(=O)N1CCC[C@H]1C(=O)N[C@@H](CO)C(=O)O` [Compound 16] (H-Y[Aib]EGTFTSDYSIYLEK([εLys-εLys-γGlu-C20 diacid])QAAREFINWLLAGGPSSGAPPPS-OH), the EC50 in data set [1] (setting [4]) was found to be 0.0134 nM; in data set [1] (setting [5]), 0.804 nM; in data set [2] (setting [6]) it was 0.0031 nM; in data set [2] (setting [7]), 0.321 nM. In addition, in data set [3] (dog, in vivo, po), the AUC/Dose was found to be 8.6 kg·h/L. In data set [3] (dog, in vivo, po), the Cmax/Dose was found to be 0.21 kg/L. The Tmax in data set [3] (dog, in vivo, po) is 1.3 h. The molecule also showed a half-life in data set [3] (dog, in vivo, po) of 47 h.
For `CC[C@H](C)[C@H](NC(=O)[C@H](Cc1ccccc1)NC(=O)[C@H](CCC(=O)O)NC(=O)[C@H](CCCNC(=N)N)NC(=O)[C@H](C)NC(=O)[C@H](C)NC(=O)[C@H](CCC(N)=O)NC(=O)[C@H](CCCCNC(=O)COCCOCCNC(=O)COCCOCCNC(=O)CC[C@H](NC(=O)CCCCCCCCCCCCCCCCC(=O)O)C(=O)O)NC(=O)[C@H](CCC(=O)O)NC(=O)[C@H](CC(C)C)NC(=O)[C@H](CC(C)C)NC(=O)[C@@H](NC(=O)[C@H](CO)NC(=O)[C@H](Cc1ccc(O)cc1)NC(=O)[C@H](CC(=O)O)NC(=O)[C@H](CO)NC(=O)[C@@H](NC(=O)[C@H](Cc1ccccc1)NC(=O)[C@@H](NC(=O)CNC(=O)[C@H](CCC(=O)O)NC(=O)C(C)(C)NC(=O)[C@@H](N)Cc1ccc(O)cc1)[C@@H](C)O)[C@@H](C)O)[C@@H](C)CC)C(=O)N[C@@H](CCC(=O)O)C(=O)N[C@@H](Cc1c[nH]c2ccccc12)C(=O)N[C@@H](CC(C)C)C(=O)N[C@@H](CC(C)C)C(=O)N[C@@H](C)C(=O)NCC(=O)NCC(=O)N1CCC[C@H]1C(=O)N[C@@H](CO)C(=O)N[C@@H](CO)C(=O)NCC(=O)N[C@@H](C)C(=O)N1CCC[C@H]1C(=O)N1CCC[C@H]1C(=O)N1CCC[C@H]1C(=O)N[C@@H](CO)C(=O)O` [Compound 32] (H-Y[Aib]EGTFTSDYSILLEK([AEEA-AEEA-γGlu-C18 diacid])QAAREFIEWLLAGGPSSGAPPPS-OH), in data set [1] (setting [4]), the concentration giving a half-maximal response (EC50) was found to be 0.0071 nM. This molecule also registered a half-maximal effective concentration (EC50) in data set [1] (setting [5]) of 0.679 nM. In addition, the EC50 in data set [2] (setting [6]) was determined as 0.005 nM. The EC50 in data set [2] (setting [7]) amounted to 0.982 nM. In addition, in data set [3] (dog, in vivo, po), the AUC/Dose is recorded as 25.3* kg * h/L, the Cmax/Dose is given as 0.45* kg/L, the Tmax turned out to be 1.8 h and the half-life was 80 h.
In the case of `CC[C@H](C)[C@H](NC(=O)[C@H](Cc1ccccc1)NC(=O)[C@H](CCC(=O)O)NC(=O)[C@H](CCCNC(=N)N)NC(=O)[C@H](C)NC(=O)[C@H](C)NC(=O)[C@H](CCC(N)=O)NC(=O)[C@H](CCC(=O)O)NC(=O)[C@H](CCC(=O)O)NC(=O)[C@H](CC(C)C)NC(=O)[C@H](CC(C)C)NC(=O)[C@@H](NC(=O)[C@H](CO)NC(=O)[C@H](Cc1ccc(O)cc1)NC(=O)[C@H](CC(=O)O)NC(=O)[C@H](CO)NC(=O)[C@@H](NC(=O)[C@H](Cc1ccccc1)NC(=O)[C@@H](NC(=O)CNC(=O)[C@H](CCC(=O)O)NC(=O)C(C)(C)NC(=O)[C@@H](N)Cc1ccc(O)cc1)[C@@H](C)O)[C@@H](C)O)[C@@H](C)CC)C(=O)N[C@@H](CCC(=O)O)C(=O)N[C@@H](Cc1c[nH]c2ccccc12)C(=O)N[C@@H](CC(C)C)C(=O)N[C@@H](CC(C)C)C(=O)N[C@@H](C)C(=O)NCC(=O)NCC(=O)N1CCC[C@H]1C(=O)N[C@@H](CO)C(=O)N[C@@H](CCCCNC(=O)[C@@H](N)CCCCNC(=O)[C@@H](N)CCCCNC(=O)CC[C@H](NC(=O)CCCCCCCCCCCCCCCCC(=O)O)C(=O)O)C(=O)NCC(=O)N[C@@H](C)C(=O)N1CCC[C@H]1C(=O)N1CCC[C@H]1C(=O)N1CCC[C@H]1C(=O)N[C@@H](CO)C(=O)O` [Compound 43] (H-Y[Aib]EGTFTSDYSILLEEQAAREFIEWLLAGGPSK([εLys-εLys-γGlu-C18 diacid])GAPPPS-OH), the concentration for a half-maximal effect (EC50) in data set [1] (setting [4]) was 0.0056 nM; in data set [1] (setting [5]) it was 0.445 nM; in data set [2] (setting [6]) it was 0.004 nM; in data set [2] (setting [7]), 0.359 nM. Besides, in data set [3] (dog, in vivo, po), the Tmax was 1.5 h. Besides, in data set [3] (dog, in vivo, po), the half-life is 131 h. Further, in data set [3] (oral tablet, SNAC 300 mg, test substance 3 mg, Beagle dogs, arithmetic mean), the AUC/Dose was found to be 21.4 kg·h/L.

One may read the EC50 as the midpoint of the concentration-response curve. A word on the Tmax: it is the time at which the peak concentration occurs. The term half-life denotes how long it takes for the measured level to halve. A lower half-life goes with rapid decline.
